According to publication PMC8877008, “Synthesis and Structure–Activity Relationship Studies of Benzimidazole-4,7-dione-Based P2X3 Receptor Antagonists as Novel Anti-Nociceptive Agents” (Molecules, 2022):

Assays:
[1] = biological target: T1, hP2X2/3R (Homo sapiens, UniProt P56373+Q9UBL9); assay: Calcium influx (Fluo-4) evoked by α,β-meATP in HEK293 cells stably expressing hP2X2/3R; type: cell-based; conditions: antagonistic activity; HEK293 cells expressing hP2X2/3R; agonist at EC70
T1 construct: expressed in transfected cells
T1 sequence (P56373 1-397): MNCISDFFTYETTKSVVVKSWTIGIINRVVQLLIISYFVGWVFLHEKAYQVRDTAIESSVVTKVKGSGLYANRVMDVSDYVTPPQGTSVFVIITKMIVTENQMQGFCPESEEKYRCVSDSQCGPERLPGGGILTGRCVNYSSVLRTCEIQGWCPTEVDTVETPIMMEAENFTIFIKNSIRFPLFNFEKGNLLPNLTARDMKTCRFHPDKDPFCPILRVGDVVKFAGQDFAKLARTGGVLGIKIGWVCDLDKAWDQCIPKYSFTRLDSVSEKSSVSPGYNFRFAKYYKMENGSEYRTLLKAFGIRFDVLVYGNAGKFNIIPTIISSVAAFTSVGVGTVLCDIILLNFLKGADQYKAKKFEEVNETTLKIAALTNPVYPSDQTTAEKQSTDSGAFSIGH
T1 sequence (Q9UBL9 1-471): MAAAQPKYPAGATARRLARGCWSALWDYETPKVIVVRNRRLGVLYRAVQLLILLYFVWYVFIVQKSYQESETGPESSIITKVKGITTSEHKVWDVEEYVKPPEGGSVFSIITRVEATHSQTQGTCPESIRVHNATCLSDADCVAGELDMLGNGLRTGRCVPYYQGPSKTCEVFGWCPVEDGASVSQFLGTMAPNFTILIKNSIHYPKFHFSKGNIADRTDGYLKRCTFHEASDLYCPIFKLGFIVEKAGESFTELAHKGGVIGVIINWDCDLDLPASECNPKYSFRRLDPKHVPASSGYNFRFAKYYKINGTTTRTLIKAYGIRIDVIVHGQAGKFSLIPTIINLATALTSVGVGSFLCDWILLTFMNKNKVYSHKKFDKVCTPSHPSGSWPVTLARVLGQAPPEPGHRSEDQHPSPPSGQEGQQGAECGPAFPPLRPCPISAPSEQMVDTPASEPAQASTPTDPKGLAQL
Protocol: For the evaluation of P2XR activities, a cell-based assay system was employed to measure the level of fluorescence emission, based on Fluo-4 dye, during Ca^2+ influx evoked by αβmeATP in HEK293 cells stably expressing hP2X2/3R and hP2X3R. The library containing 8364 representative compounds for the screening of antagonistic activity was provided by the Korea Chemical Bank. The antagonistic activities were evaluated in the presence of P2X3R agonist of the concentration for EC70 value (200–250 nM for hP2X3R and 1–4 μM for hP2X2/3R highly expressed cell lines), and AF353 was used as the positive control antagonist for comparison. […]
3.4. Cell-Based Assay: Measurement of Calcium Influx by Fluorescence-Based Fluo-4 Dye Uptake in HEK293 Cells Expressing hP2X2/3 and hP2X3 Receptors
Human P2X3-expressing HEK293 cells were grown in DMEM supplemented with 10% fetal bovine serum and 1% antibiotic–antimycotic as a monolayer culture at 37 °C in a humidified atmosphere of 5% CO2. […] Flexstation 3 and its software provided by Molecular Devices was used for the measurement of fluorescence in real time of treatments using prepared α,β-meATP (M6517, Sigma Aldrich) solution to evoke calcium influx and increased cell membrane potential. […]

[2] = Metabolic stability in microsomal fraction, rat; type: in vitro ADME; conditions: rat microsomal fraction, read-out: Metabolic Stability (Microsomal Fr.) % remaining after 30 min
[3] = biological target: CYP 2D6 (Homo sapiens, UniProt P10635); assay: CYP450 inhibition 2D6; type: in vitro ADME; conditions: compound 10 μM
Sequence of CYP 2D6 (P10635 whole entry): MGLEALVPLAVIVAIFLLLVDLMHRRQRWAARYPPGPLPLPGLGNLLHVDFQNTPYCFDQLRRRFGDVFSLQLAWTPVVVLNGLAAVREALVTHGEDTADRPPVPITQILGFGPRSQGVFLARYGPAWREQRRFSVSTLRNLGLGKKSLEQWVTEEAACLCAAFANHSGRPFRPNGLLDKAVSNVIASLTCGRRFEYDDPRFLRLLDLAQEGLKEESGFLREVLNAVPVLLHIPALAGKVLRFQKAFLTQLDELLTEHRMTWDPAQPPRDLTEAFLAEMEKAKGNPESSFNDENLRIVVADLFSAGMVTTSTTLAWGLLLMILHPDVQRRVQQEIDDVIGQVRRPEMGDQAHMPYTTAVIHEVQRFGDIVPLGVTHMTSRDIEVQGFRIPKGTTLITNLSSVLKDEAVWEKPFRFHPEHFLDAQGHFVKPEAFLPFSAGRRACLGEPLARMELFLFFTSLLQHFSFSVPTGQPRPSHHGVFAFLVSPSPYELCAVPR

[4] = tested on: SNL rats; assay: Antiallodynic effect, spinal nerve ligation (SNL) neuropathic pain model, von Frey; type: in vivo, male Sprague-Dawley rats; conditions: intravenous 12 mg/kg, von Frey filaments, five rats
Description: The experimental protocol (CNUHIACUC-20039) was approved by the Institutional Animal Care and Use Committee of Chonnam National University Hospital. Animal models of neuropathic pain (NP) were constructed by spinal nerve ligation (SNL) or chemotherapeutics injection (chemotherapy-induced peripheral neuropathy, CIPN) in male Sprague-Dawley rats (weight, 150–180 g). Briefly, under sevoflurane anesthesia, the left L5 and L6 spinal nerves near the vertebral column were separated and tightly ligated using 6-0 silk. Cisplatin was administered intraperitoneally at 2 mg/kg once daily for 4 days. The paw withdrawal threshold (PWT) to mechanical stimuli was measured using calibrated 0.41–15.2 g von Frey filaments (Stoelting, Wood Dale, IL, USA), as described previously. […] The antiallodynic effects of the intravenous vehicle and LDD4692 (3mg/rat) were evaluated and expressed as the percentage of the maximal possible effect (% MPE). % MPE = [(post drug PWT − post injured baseline PWT)/(cutoff PWT − post injured baseline PWT)] × 100
For the analysis of antagonistic activities, all data were calculated by Origin Pro 9.1 software provided by Originlab and the fitting of graphs was proceeded by the growth/sigmoidal and hill1 process within no weights for data selections. For the analysis of the behavioral assessments of pain models, all data are expressed as mean ± SEM. […]

## O=C1C(NC2CCN(C(=O)c3ccc(F)c(F)c3)CC2)=C(Cl)C(=O)c2[nH]c(C(F)(F)F)nc21 [14h, 6-Chloro-5-((1-(3,4-difluorobenzoyl)piperidin-4-yl)amino)-2-(trifluoromethyl)-1H-benzo[d]imidazole-4,7-dione]
[1]
  IC50: 9.1 µM
[2]
  remaining at 0.5 h: > 99%
[3]
  CYP450 inhibition 2D6: 7.74%
[4]
  Maximal possible effect (% MPE), antiallodynic: 54%
